{"source": "ChEMBL document CHEMBL4507265", "about": "(2021)", "key": {"[1]": {"target": "Voltage-dependent N-type calcium channel subunit alpha-1B (Homo sapiens) (UniProt Q00975)", "sequence (Q00975 whole entry, looked up)": "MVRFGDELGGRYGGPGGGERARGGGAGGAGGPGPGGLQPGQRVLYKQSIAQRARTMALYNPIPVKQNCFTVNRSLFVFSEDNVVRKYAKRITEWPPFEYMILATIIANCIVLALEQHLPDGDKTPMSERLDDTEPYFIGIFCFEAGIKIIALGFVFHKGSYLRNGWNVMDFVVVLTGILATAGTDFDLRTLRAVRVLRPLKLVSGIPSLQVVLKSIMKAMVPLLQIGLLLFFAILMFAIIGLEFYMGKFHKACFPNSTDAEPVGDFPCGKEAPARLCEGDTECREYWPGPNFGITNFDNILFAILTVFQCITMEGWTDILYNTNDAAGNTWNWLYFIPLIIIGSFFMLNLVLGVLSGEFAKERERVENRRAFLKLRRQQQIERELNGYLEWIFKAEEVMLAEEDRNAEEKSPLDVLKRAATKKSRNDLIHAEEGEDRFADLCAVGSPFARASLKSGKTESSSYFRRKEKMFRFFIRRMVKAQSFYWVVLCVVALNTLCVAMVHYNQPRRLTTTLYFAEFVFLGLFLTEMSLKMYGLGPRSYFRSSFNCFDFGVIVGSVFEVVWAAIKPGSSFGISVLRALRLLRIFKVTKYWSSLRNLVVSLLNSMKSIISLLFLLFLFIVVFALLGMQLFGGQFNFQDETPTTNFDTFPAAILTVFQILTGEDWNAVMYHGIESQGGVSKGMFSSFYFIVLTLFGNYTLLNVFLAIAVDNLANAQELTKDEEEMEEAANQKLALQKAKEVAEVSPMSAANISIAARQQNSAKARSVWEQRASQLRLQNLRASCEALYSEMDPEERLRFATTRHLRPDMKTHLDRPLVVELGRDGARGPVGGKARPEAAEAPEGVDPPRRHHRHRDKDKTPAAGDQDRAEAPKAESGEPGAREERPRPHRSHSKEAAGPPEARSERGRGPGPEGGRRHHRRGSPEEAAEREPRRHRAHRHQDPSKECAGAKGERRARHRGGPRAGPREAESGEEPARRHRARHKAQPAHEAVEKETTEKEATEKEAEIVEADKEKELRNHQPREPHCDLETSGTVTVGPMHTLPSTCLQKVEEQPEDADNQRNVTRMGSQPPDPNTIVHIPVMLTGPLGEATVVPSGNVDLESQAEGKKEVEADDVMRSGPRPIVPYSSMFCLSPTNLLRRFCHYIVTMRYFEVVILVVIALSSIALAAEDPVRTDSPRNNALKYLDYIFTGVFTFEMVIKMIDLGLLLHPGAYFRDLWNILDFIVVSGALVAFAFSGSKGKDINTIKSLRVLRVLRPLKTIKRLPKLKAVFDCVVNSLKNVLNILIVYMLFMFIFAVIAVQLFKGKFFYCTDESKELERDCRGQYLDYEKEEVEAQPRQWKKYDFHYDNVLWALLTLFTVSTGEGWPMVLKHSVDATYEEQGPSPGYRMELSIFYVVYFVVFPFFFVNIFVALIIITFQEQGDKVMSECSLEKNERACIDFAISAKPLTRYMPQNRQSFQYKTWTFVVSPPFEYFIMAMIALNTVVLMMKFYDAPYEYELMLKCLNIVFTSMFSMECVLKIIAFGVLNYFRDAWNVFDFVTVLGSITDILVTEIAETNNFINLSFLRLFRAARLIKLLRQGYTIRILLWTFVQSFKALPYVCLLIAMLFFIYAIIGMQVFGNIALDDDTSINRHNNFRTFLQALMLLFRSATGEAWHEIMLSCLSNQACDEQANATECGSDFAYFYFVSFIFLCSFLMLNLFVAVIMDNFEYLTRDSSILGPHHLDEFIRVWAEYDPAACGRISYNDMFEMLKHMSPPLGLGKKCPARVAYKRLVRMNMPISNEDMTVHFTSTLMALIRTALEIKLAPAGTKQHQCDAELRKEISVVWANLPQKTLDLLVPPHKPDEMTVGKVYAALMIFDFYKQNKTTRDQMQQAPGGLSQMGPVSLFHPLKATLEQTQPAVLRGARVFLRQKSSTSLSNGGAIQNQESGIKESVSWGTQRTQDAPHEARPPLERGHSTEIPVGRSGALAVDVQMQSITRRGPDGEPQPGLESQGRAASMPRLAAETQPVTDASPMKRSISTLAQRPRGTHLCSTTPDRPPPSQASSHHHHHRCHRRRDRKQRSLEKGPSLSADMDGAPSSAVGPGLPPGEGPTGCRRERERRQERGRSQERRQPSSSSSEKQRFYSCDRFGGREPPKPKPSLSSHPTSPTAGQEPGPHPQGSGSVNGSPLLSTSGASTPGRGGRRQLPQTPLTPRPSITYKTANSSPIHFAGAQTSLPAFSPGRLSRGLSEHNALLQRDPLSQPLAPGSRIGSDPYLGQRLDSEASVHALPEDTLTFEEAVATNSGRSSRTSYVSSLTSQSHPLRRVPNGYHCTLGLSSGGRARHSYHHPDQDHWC", "test": "Inhibition of Calcium Channel N-Type at 10 µM in the Eurofins-Panlabs radioligand binding assay (Eurofins_assay_216000)", "settings": "Rattus norvegicus; Compound concentration 10.0 uM; call rule not given here"}, "[2]": {"target": "voltage-gated sodium channel, site 2 (Rattus norvegicus, UniProt F1LQQ7+O08562+O88420+O88457+P04774+P04775+P08104+P15389+P15390+Q62968)", "test": "Inhibition of Sodium Channel, Site 2 at 10 µM in the Eurofins-Panlabs radioligand binding assay (Eurofins_assay_279510)", "assay_type": "protein assay", "design": "ligand concentration 5 nM, non-specific ligand with concentration 100 µM Veratridine, incubation time 60 min, incubation temperature 37 °C", "settings": "male, Wistar, rat whole brain (except cerebellum) membranes, probe [3H] Batrachotoxinin, 5 nM, compound concentration 10 uM"}, "[3]": {"target": "L-type calcium channel, benzothiazepine site (Cav1.2 alpha-1C) (Homo sapiens, UniProt Q13936)", "test": "Inhibition of Calcium Channel L-Type, Benzothiazepine at 10 µM in the Eurofins-Panlabs radioligand binding assay (Eurofins_assay_214510)", "design": "ligand concentration 2 nM, non-specific ligand with concentration 10 µM Diltiazem, incubation time 3h, incubation temperature 4 °C", "settings": "male, Wistar, rat, rat whole brain preparation, probe [3H] Diltiazem, 2 nM; compound concentration 10 uM; target entry is the homologue from another species"}, "[4]": {"target": "Alpha-2B adrenergic receptor (Homo sapiens, UniProt P18089)", "sequence (P18089 whole entry)": "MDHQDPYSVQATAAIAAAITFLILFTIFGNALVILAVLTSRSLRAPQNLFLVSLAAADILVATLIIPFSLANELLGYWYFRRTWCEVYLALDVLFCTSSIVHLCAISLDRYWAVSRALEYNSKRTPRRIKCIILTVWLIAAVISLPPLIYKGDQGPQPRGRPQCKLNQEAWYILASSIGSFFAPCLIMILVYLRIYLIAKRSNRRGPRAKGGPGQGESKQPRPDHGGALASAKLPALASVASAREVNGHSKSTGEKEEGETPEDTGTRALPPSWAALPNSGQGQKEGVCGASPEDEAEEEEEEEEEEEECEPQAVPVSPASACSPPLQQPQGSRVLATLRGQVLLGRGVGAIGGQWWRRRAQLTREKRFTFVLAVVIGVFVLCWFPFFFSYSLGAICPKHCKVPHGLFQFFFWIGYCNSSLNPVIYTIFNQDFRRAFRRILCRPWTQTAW", "test": "GPCRScan assay: inhibition of Alpha2B", "design": "radioligand conc. used [nm] 1.5 – 2.0, parental cells HEKT"}, "[5]": {"target": "B2 bradykinin receptor (Homo sapiens) (UniProt P30411)", "sequence (P30411 whole entry)": "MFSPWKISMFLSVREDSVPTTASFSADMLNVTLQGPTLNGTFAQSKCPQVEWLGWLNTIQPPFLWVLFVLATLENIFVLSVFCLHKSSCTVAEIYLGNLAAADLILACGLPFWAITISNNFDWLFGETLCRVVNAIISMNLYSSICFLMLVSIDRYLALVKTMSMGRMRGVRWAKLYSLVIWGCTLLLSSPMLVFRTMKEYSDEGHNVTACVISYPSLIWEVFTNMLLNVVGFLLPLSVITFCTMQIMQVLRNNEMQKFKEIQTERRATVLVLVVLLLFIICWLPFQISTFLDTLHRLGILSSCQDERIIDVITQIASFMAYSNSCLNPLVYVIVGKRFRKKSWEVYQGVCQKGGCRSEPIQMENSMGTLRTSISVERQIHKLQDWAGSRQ", "settings": "Compound concentration 10.0 uM"}, "[6]": {"target": "Neuropeptide Y receptor type 1 (Homo sapiens) (UniProt P25929)", "sequence (P25929 whole entry)": "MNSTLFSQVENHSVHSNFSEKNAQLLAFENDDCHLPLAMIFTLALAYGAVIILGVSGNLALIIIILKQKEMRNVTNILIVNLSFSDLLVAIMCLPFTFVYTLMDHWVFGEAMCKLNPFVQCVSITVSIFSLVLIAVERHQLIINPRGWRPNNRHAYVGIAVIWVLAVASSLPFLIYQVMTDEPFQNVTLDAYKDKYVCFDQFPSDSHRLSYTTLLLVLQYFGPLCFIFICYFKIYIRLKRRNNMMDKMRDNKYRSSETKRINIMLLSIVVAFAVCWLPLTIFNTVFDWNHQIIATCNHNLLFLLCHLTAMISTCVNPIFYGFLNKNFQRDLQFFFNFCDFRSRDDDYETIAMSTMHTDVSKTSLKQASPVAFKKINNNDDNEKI", "test": "Inhibition of Neuropeptide Y Y1 at 10 µM in the Eurofins-Panlabs radioligand binding assay (Eurofins_assay_257010)", "settings": "Compound concentration 10.0 uM"}, "[7]": {"organism": "Rattus norvegicus", "settings": "Compound concentration 10.0 uM"}, "[8]": {"target": "B1 bradykinin receptor (Homo sapiens) (UniProt P46663)", "sequence (P46663 whole entry)": "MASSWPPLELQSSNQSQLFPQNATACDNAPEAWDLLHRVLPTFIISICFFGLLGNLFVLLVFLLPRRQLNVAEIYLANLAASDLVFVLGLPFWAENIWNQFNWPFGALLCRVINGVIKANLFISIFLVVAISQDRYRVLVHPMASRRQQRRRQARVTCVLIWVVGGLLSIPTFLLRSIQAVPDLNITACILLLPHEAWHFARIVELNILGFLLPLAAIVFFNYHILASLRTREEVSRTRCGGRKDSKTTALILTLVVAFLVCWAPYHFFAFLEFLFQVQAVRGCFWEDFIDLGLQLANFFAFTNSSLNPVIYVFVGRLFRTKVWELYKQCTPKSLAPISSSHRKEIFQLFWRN", "test": "Inhibition of Bradykinin B1 at 10 µM in the Eurofins-Panlabs radioligand binding assay (Eurofins_assay_212510)", "settings": "Compound concentration 10.0 uM"}, "[9]": {"organism": "Mus musculus", "test": "Inhibition of Interleukin IL-1 at 10 µM in the Eurofins-Panlabs radioligand binding assay (Eurofins_assay_243520)", "design": "ligand concentration 0.1 nM", "settings": "Compound concentration 10.0 uM"}, "[10]": {"target": "Adenosine receptor A1 (Homo sapiens) (UniProt P30542)", "sequence (P30542 whole entry)": "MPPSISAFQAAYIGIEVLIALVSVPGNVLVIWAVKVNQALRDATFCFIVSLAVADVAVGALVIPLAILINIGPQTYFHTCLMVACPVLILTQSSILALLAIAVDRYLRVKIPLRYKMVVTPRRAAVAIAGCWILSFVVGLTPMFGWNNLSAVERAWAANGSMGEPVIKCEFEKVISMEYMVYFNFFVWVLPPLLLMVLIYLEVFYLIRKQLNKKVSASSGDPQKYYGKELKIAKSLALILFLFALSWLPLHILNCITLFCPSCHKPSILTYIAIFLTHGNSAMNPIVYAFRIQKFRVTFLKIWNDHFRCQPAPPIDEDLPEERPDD", "settings": "Compound concentration 10.0 uM"}}, "note": "pKi: −log10 of the molar value.", "data": [{"smiles": "NS(=O)(=O)c1cc(NC(=O)Cc2ccccc2)ccc1Oc1cccc(Cl)c1", "note": "[BAY-1797]", "values": [{"measurement": "inhibition", "setting": "[1]", "result": 6, "unit": "%"}, {"measurement": "inhibition at 60 min, 10 µM", "setting": "[2]", "result": 57, "unit": "%"}, {"measurement": "inhibition at 3 h, 10 µM", "setting": "[3]", "result": "17% (not active)"}, {"measurement": "pKi", "setting": "[4]; read-out: Ki", "result": 5.37}, {"measurement": "Ki", "setting": "[4]; read-out: pKi (converted)", "result": 4.32, "unit": "µM"}, {"measurement": "inhibition", "setting": "[5]", "result": 10, "unit": "%"}, {"measurement": "inhibition", "setting": "[6]", "result": 9, "unit": "%"}, {"measurement": "inhibition", "setting": "[7]", "result": -10, "unit": "%"}, {"measurement": "inhibition", "setting": "[8]", "result": 11, "unit": "%"}, {"measurement": "inhibition", "setting": "[9]", "result": 24, "unit": "%"}, {"measurement": "inhibition", "setting": "[10]", "result": 35, "unit": "%"}]}]}
